We go through eleven compounds from US10941114B2, “Small molecule lipid II inhibitors” (University Of Maryland, Baltimore, priority 2015, dated 2021).

For one assay, the system named is Enterococcus faecalis. In words: Antibacterial activity assay (MIC, broth dilution). The class given is cell-based. The following applies: Enterococcus faecalis 15951; broth microdilution. Background: Dilution methods test growth across graded concentrations, often in twofold steps.
In another assay the test system is Staphylococcus aureus. The assay is described as follows: Antibacterial activity assay (MIC, broth dilution). The following applies: Staphylococcus aureus USA 300 strain; broth microdilution. The class given is cell-based.

In turn, `CN(C)c1ccc(/C=C/c2cc(-c3ccc(Cl)cc3)cc(-c3ccc(F)cc3)[n+]2C)cc1.[I-]` [Compound 2jc43-1, (E)-4-(4-chlorophenyl)-2-(4-(dimethylamino)styryl)-6-(4-fluorophenyl)-1-methylpyridin-1-ium iodide salt] had an MIC EF 15951 in the assay on Enterococcus faecalis of 2 µg/mL. The MIC SA USA300 in the assay with Staphylococcus aureus was determined as 4 µg/mL.

`CN(CCC#N)c1ccc(/C=C/c2cc(-c3ccc(Cl)cc3)cc(-c3ccc(F)cc3)[n+]2C)cc1.[I-]` [Compound 2jc43-2, (E)-4-(4-chlorophenyl)-2-(4-((2-cyanoethyl)(methyl)amino)styryl)-6-(4-fluorophenyl)-1-methylpyridin-1-ium iodide salt]: in the assay with Enterococcus faecalis, the MIC EF 15951 was 2 µg/mL. This compound gave an MIC SA USA300 in the assay on Staphylococcus aureus of 2 µg/mL.

With `CN(C)c1ccc(/C=C/c2cc(-c3ccc(Cl)cc3)cc(-c3ccc(Br)cc3)[n+]2C)cc1.[I-]` [Compound 2jc43-3, (E)-2-(4-bromophenyl)-4-(4-chlorophenyl)-6-(4-(dimethylamino)styryl)-1-methylpyridin-1-ium iodide salt], in the assay on Enterococcus faecalis, the MIC EF 15951 amounted to 2 µg/mL. In the assay on Staphylococcus aureus, this compound yielded an MIC SA USA300 of 2 µg/mL.

In turn, `CN(CCC#N)c1ccc(/C=C/c2cc(-c3ccc(Cl)cc3)cc(-c3ccc(Br)cc3)[n+]2C)cc1.[I-]` [Compound 2jc43-4, (E)-2-(4-bromophenyl)-4-(4-chlorophenyl)-6-(4-((2-cyanoethyl)(methyl)amino)styryl)-1-methylpyridin-1-ium iodide salt] had an MIC EF 15951 against Enterococcus faecalis of 16 µg/mL. In the assay on Staphylococcus aureus, this compound displayed an MIC SA USA300 of 32 µg/mL.

`CN(C)c1ccc(/C=C/c2cc(-c3ccc(N(C)C)cc3)cc(-c3ccc(F)cc3)[n+]2C)cc1.[I-]` [Compound 3jc01-1, (E)-4-(4-(dimethylamino)phenyl)-2-(4-(dimethylamino)styryl)-6-(4-fluorophenyl)-1-methylpyridin-1-ium iodide salt] returned an MIC EF 15951 in the assay with Enterococcus faecalis of 1 µg/mL. Further, the MIC SA USA300 against Staphylococcus aureus is 2 µg/mL.

`CN(C)c1ccc(-c2cc(/C=C/c3ccc(N(C)CCC#N)cc3)[n+](C)c(-c3ccc(F)cc3)c2)cc1.[I-]` [Compound 3jc01-2, (E)-2-(4-((2-cyanoethyl)(methyl)amino)styryl)-4-(4-(dimethylamino)phenyl)-6-(4-fluorophenyl)-1-methylpyridin-1-ium iodide salt] displayed an MIC EF 15951 with Enterococcus faecalis of 16 µg/mL. In the assay on Staphylococcus aureus, this compound gave an MIC SA USA300 of 32 µg/mL.

Consider `CN(C)c1ccc(/C=C/c2cc(-c3ccc(N(C)C)cc3)cc(-c3ccc(Br)cc3)[n+]2C)cc1.[I-]` [Compound 3jc01-3, (E)-2-(4-bromophenyl)-4-(4-(dimethylamino)phenyl)-6-(4-(dimethylamino)styryl)-1-methylpyridin-1-ium iodide salt], for which the MIC EF 15951 against Enterococcus faecalis worked out at 1 µg/mL. In the assay with Staphylococcus aureus, the MIC SA USA300 was determined as 1 µg/mL.

On to `CN(C)c1ccc(-c2cc(/C=C/c3ccc(N(C)CCC#N)cc3)[n+](C)c(-c3ccc(Br)cc3)c2)cc1.[I-]` [Compound 3jc01-4, (E)-2-(4-bromophenyl)-6-(4-((2-cyanoethyl)(methyl)amino)styryl)-4-(4-(dimethylamino)phenyl)-1-methylpyridin-1-ium iodide salt], for which the MIC EF 15951 against Enterococcus faecalis is 32 µg/mL. In addition, in the assay on Staphylococcus aureus, the MIC SA USA300 is 32 µg/mL.

The compound `CN(CCC#N)c1ccc(/C=C/c2cc(-c3ccc(N(C)CCC#N)cc3)cc(-c3ccc(F)cc3)[n+]2C)cc1.[I-]` [Compound 3jc01-6, (E)-4-(4-((2-cyanoethyl)(methyl)amino)phenyl)-2-(4-((2-cyanoethyl)(methyl)amino)styryl)-6-(4-fluorophenyl)-1-methylpyridin-1-ium iodide salt] registered an MIC EF 15951 in the assay with Enterococcus faecalis of 8 µg/mL. The same compound registered an MIC SA USA300 in the assay on Staphylococcus aureus of 1 µg/mL.

On to `CN(C)c1ccc(/C=C/c2cc(-c3ccc(N(C)CCC#N)cc3)cc(-c3ccc(Br)cc3)[n+]2C)cc1.[I-]` [Compound 3jc01-7], for which the MIC EF 15951 in the assay with Enterococcus faecalis is 2 µg/mL. In the assay on Staphylococcus aureus, the MIC SA USA300 was determined as 1 µg/mL.

In the case of `CN(CCC#N)c1ccc(/C=C/c2cc(-c3ccc(N(C)CCC#N)cc3)cc(-c3ccc(Br)cc3)[n+]2C)cc1.[I-]` [Compound 3jc01-8], the MIC EF 15951 against Enterococcus faecalis stood at 2 µg/mL. Moreover, the MIC SA USA300 in the assay on Staphylococcus aureus was 1 µg/mL.
